Data reported in ChEMBL document CHEMBL1159277, “Sesquiterpene/quinol from a New Zealand liverwort, Riccardia crassa” (J Nat Prod, 1995).
Calls of active or inactive are those of the source. No cut-off for these calls is given here.

Key:
P388 = test: Cytotoxicity against mouse P388 cells; type: functional, cell-based
Candida albicans = test: Antifungal activity against Candida albicans at 60 ug/disk; type: functional, organism-based
[1] = test system: Trichophyton mentagrophytes; test: Antifungal activity against Trichophyton mentagrophytes at 60 ug/disk; type: functional, organism-based

Compound: CC(C)=C/C=C/[C@@]1(C)CCC[C@]2(C)Oc3ccc(O)cc3C[C@@H]12 [RICCARDIPHENOL C]
- IC50 (P388): > 25 µg/mL
- Activity (Candida albicans): inactive
- Activity [1]: inactive
